Values quoted from earlier work as cited in patent publication US11123365B2, “Compositions comprising palmitoylethanolamide and hydrogen water, and methods thereof” (Perricone Hydrogen Water Company, LLC, priority 2019, dated 2021).

solubility in water: less than 20 mM
Structure (SMILES): CCCCCCCCCCCCCCCC(=O)NCCO [palmitoylethanolamide]
